This note sets out measurements from patent US20030013643A1, “Prevention and treatment of streptococcal and staphylococcal infection” (priority 2000, published 2003).

Experiment [1] has as its system GAS 950771 or GAS 282. Kind of experiment: GAS binding to and displacement from human keratinocyte monolayers. To be noted: 1 mg/ml. It is filed as cell-based, Streptococcus pyogenes.
Experiment [2] relates to Streptococcus pneumoniae (S. pneumo, type 6). Kind of experiment: Bacterial binding to human keratinocyte monolayers, S. pneumoniae. It is filed as cell-based. The settings on record: 1 mg/ml pre-incubation; multiplicity of infection 10; 1 hour. The method, then: (§1) Keratinocyte monolayers were prepared as descibed above in Methods section and pre-incubated with 1 mg/ml alginate (AL, solid bars) or 1 mg/ml hyaluronic acid (HA, hatched bars) prior to surface inoculation (as described above in Methods) with either Group A Streptococcus (GAS, strain 950771), Group B Streptococcus (GBS, strain 515), Streptococcus pneumoniae (S. pneumo, type 6), or Staphylococcus aureus (S. aureus, type 8) at a multiplicity of infection of 10 bacteria per keratinocyte for 1 hour.

For experiment [3], the system named is Staphylococcus aureus (S. aureus, type 8). Put plainly: Bacterial binding to human keratinocyte monolayers, S. aureus. It is filed as cell-based. The settings on record: 1 mg/ml pre-incubation; multiplicity of infection 10; 1 hour. The protocol:
as §1

The subject of experiment [4] is wild-type GAS, strain 950771. Kind of experiment: GAS translocation through polarized human keratinocyte monolayers. It is filed as cell-based, Streptococcus pyogenes. The settings on record: pre-treated 30 minutes with 2 mg/ml, compared to untreated monolayers. The method, then:
Human keratinocytes were cultured on 3.0 μm filters to allow polarization and establishment of functional intercellular tight junctions. Cells were infected as described previously with wild-type GAS, strain 950771. To assess the ability of exogenously added HA to inhibit the translocation of GAS through the keratinocyte monolayer, cells were pre-treated for 30 minutes with either 2 mg/ml of hyaluronic acid (HA) or another acidic polysaccharide, alginate (AL), at the same concentration. Aliquots of media from the lower chamber of infected keratinocyte monolayers were cultured on blood agar plates at 1 and 2 hours after inoculation with bacteria to assess the number of translocating bacteria. […] In contrast only 20% and 25% of the wild-type bacteria were blocked by AL at 1 and 2 hours, respectively.
GAS strains were 950771, an M-type 3 strain originally isolated from a child with necrotizing fasciitis, and 188, an isogenic acapsular mutant derived from 950771 (Ashbaugh, C. D., et al., (1998) J. Clin. Invest. 102, 550-560). Bacteria were cultured in Todd Hewitt broth (Difco, Sparks, Md.) to early exponential phase. For preparation of polarized keratinocyte monolayers, human squamous cell carcinoma cell line, SCC13, derived from cheek epidermis (Cline, P. R. & Rice, R. H. (1983) Cancer Res. 43, 3203-3207) was cultured to confluence in serum-free keratinocyte medium (Gibco BRL, Rockville, Md.) supplemented with 50 μg/ml bovine pituitary extract, 0.1 ng/ml epidermal growth factor and 0.3 mM calcium chloride (c-SFM). Certain experiments were performed also using cell monolayers prepared from OKP7 primary human keratinocytes (Crowe et al. (1991) Differentiation 48, 199-208). Keratinocytes were seeded at 5×10^5 cells per well onto polycarbonate Transwell membrane supports (12-well plates, 3.0 μm pore size; Costar, Corning, N.Y.) and cultured for 6-10 days at 37° C. with 5% CO2 in c-SFM, with daily medium changes. Once confluent, the integrity of the monolayer was assessed routinely by measuring permeability to sodium fluorescein (Tchao, R. (1988) Alternative Methods in Toxicology (eds. Goldberg, A. M.) 271-283 (Ann Liebert, N.Y.) and, in some experiments, by measuring transepithelial electrical resistance (McNamara, B. P., et al. (2001) J Clin Invest 107, 621-9).
Keratinocyte monolayers on Transwells were inoculated with GAS at a multiplicity of infection of 10 per keratinocyte. Monolayers were incubated at 37° C. with 5% CO2. The keratinocyte medium in the upper chamber was replaced two hours after adding GAS, and the Transwell inserts containing the keratinocytes were moved to new wells containing fresh medium every 2 hours to prevent overgrowth of translocated bacteria. Translocation was assessed by quantitative cultures of medium from the lower chamber at 2 hour intervals.
As a model of the movement of GAS from the pharyngeal mucosa or skin surface into underlying tissue, GAS translocation was studied in vitro through keratinocyte monolayers. Two hours after inoculation onto the surface of a confluent keratinocyte monolayer, wild-type GAS was detected in the culture medium below the membrane support, indicating migration of the organisms through the monolayer. At each of several intervals after inoculation, approximately 20 to 100 times as many GAS were recovered below monolayers inoculated with wild-type GAS compared to those inoculated with the acapsular mutant strain.(Figure 12a). […] Compared to wild-type GAS strain 950771, the efficiency of translocation was similar for wild-type GAS strains 87-282, a highly encapsulated M-type 18 strain, and for DLS003, a poorly encapsulated M-type 3 strain. Translocation of wild-type GAS was reduced by 78% at 1 hour in experiments in which the keratinocyte monolayers were pretreated with monoclonal antibody IM7.8.1 to block interaction of the GAS capsule with CD44 . […]

The test system of experiment [5] is Group B Streptococcus (GBS, strain 515). Put plainly: Bacterial binding to human keratinocyte monolayers, GBS. It is filed as cell-based. To be noted: 1 mg/ml pre-incubation; multiplicity of infection 10; 1 hour. The method, then: as §1

For the substance hyaluronic acid, in experiment [1] (GAS 950771 or GAS 282, not strain specific), the “inhibition of GAS binding to human cells” value is given as “block GAS binding to human cells”. For the same substance, in experiment [1] (after 45 minutes), the “displacement of bound bacteria” value is reported as “displaced bound GAS”. In addition, the inhibition of binding result in experiment [2], in experiment [3] and in experiment [5] was “more than 80%” each time. The “blocking of translocating GAS” value in experiment [4] (1 hour after inoculation) and in experiment [4] (2 hours after inoculation) was 100% each time.
